# Measurements from patent US20050090522A1 (priority 2001, published 2005).
# System: HIV-1
# Experiment: HIV-1 single-round infectious luciferase reporter virus (pseudotype) assay in HeLa CD4 CCR5 cells
# Type: cell-based
# Conditions: Human immunodeficiency virus 1, HeLa-CD4/CCR5, read-out: EC50 Group from TABLE 1, HeLa CD4 CCR5 cells, single-round infectious luciferase reporter virus
# Method: • Virus production—Human embryonic Kidney cell line, 293, propagated in Dulbecco's Modified Eagle Medium (Life Technologies, Gaithersburg, Md.) containing 10% fetal Bovine serum (FBS, Sigma, St. Louis, Mo.). • Virus infection—Human epithelial cell line, HeLa, expressing the HIV-1 receptors CD4 and CCR^5 was propagated in Dulbecco's Modified Eagle Medium (Life Technologies, Gaithersburg, Md.) containing 10% fetal Bovine serum (FBS, Sigma, St. Louis, Mo.) and supplemented with 0.2 mg/mL Geneticin (Life Technologies, Gaithersburg, Md.) and 0.4 mg/mL Zeocin (Invitrogen, Carlsbad, Calif.). […] Transfections were performed using lipofectAMINE PLUS reagent as described by the manufacturer (Life Technologies, Gaithersburg, Md.). Experiment • 1. Compound was added to HeLa CD4 CCR5 cells plated in 96 well plates at a cell density of 5×10^4 cells per well in 100 μl Dulbecco's Modified Eagle Medium containing 10% fetal Bovine serum at a concentration of […]. • 2. 100 μl of single-round infectious reporter virus in Dulbecco's Modified Eagle Medium was then added to the plated cells and compound at an approximate multiplicity of infection (MOI) of 0.01, resulting in a final volume of 200 μl per well and a final compound concentration of <10 μM. • 3. Samples were harvested 72 h after infection. • 4. Viral infection was monitored by measuring luciferase expression from viral DNA in the infected cells using a luciferase reporter gene assay kit (Roche Molecular Biochemicals, Indianapolis, Ind.). Infected cell supernatants were removed and 50 μl of Dulbecco's Modified Eagle Medium (without phenol red) and 50 μl of luciferase assay reagent reconstituted as described by the manufacturer (Roche Molecular Biochemicals, Indianapolis, Ind.) was added per well. Luciferase activity was then quantified by measuring luminescence using a Wallac microbeta scintillation counter. • 5. […] An EC50 provides a method for comparing the antiviral potency of the compounds of this invention. The effective concentration for fifty percent inhibition (EC50) was calculated with the Microsoft Excel Xlfit curve fitting software. For each compound, curves were generated from percent inhibition calculated at 10 different concentrations by using a four paramenter logistic model (model 205). Table 1 is the key for the data in Tables 2-4. Cytoxicity assays were conducted with the same HeLa using methodology well known in the art.
# In Table 5, X2, X4 etc. indicates the point of attachment. […] The data at 10 μM was calculated in the following manner:
# For compounds tested at concentrations less than 10 μM, the percent inhibition at 10 μM was determined by extrapolation using the XLfit curve fitting feature of the Microsoft Excel spreadsheet software. Curves were obtained from 10 data points (% inhibition determined at 10 concentrations of compound) by using a four parameter logistic model (XLfit model 205: y=A+((B−A)/(I+((C/x)^D))), where, A=minimum y, B=maximum y, C=logEC50, D=slope factor, and x and y are known data values. Extrapolations were performed with the A and B parameters unlocked. […]
row,Structure (SMILES),EC50 [nM]
1,"CCN(CC)C(=O)c1cnc(-c2ncc(OC)c3c(C(=O)C(=O)N4CCN(C(=O)c5ccccn5)CC4)c[nH]c23)cn1 [Example 184, 1-picolinoyl-4-[(4-methoxy-7-(2-diethylaminocarbonyl-pyrazin-5-yl)-6-azaindol-3-yl)-oxoacetyl]piperazine]",< 1000
2,"C[C@@H]1CN(C(=O)c2ccccc2)CCN1C(=O)C(=O)c1c[nH]c2c(-c3cccc(NC(=O)C4OC4C(=O)O)n3)nccc12 (stereo in doubt) [Example 297, 3-(6-{3-[2-(4-Benzoyl-2-methyl-piperazin-1-yl)-2-oxo-acetyl]-1H-pyrrolo[2,3-c]pyridin-7-yl}-pyridin-2-ylcarbamoyl)-oxirane-2-carboxylic acid]",< 1000
3,"COc1cnc(-n2ccc(C3=CCCCC3)n2)c2[nH]cc(C(=O)C(=O)N3CCN(C(=O)c4ccccc4)CC3)c12 [Example 278, 1-benzoyl-4-[(4-methoxy-7-(3-(cyclohexen-1-yl)-pyrazol-1-yl)-6-azaindol-3-yl)-oxoacetyl]piperazine]",< 1000
4,O=C(Nc1cccnc1)c1ncc(Cl)c2c(C(=O)C(=O)N3CCN(C(=O)c4ccccc4)CC3)c[nH]c12 [Example 152],< 1000
5,COc1cnc(C2=NC(C)(C)CO2)c2[nH]cc(C(=O)C(=O)N3CCN(C(=O)c4ccccc4)CC3)c12 [Example 156],< 1000
6,"CCN(CC)c1nc(-c2ncc(OC)c3c(C(=O)C(=O)N4CCN(C(=O)c5ccccc5)CC4)c[nH]c23)cs1 [Example 70, 1-benzoyl-4-[(4-methoxy-7-(2-diethylamino-thiazol-4-yl)-6-azaindol-3-yl)-oxoacetyl]piperazine]",< 1000
7,COc1cnc(-c2cnccn2)c2[nH]cc(C(=O)C(=O)N3CCN(C(=O)c4cnccn4)CC3)c12 [Example 195],< 1000
8,C[C@@H]1CN(C(=O)c2ccccc2)CCN1C(=O)C(=O)c1c[nH]c2c(-c3cnc(O)nc3)nccc12 [Example 162],< 1000
9,"COc1cnc(-n2ccc(CC(C)C)n2)c2[nH]cc(C(=O)C(=O)N3CCN(C(=O)c4ccccc4)CC3)c12 [Example 281, 1-benzoyl-4-[(4-methoxy-7-(3-isobutyl-pyrazol-1-yl)-6-azaindol-3-yl)-oxoacetyl]piperazine]",< 1000
10,"COc1cnc(-c2cnc(C)cn2)c2[nH]cc(C(=O)C(=O)N3CCN(C(=O)c4ccccn4)CC3)c12 [Example 180, 1-picolinoyl-4-[(4-methoxy-7-(2-methylpyrazin-5-yl)-6-azaindol-3-yl)-oxoacetyl]piperazine]",< 1000
11,"C[C@@H]1CN(C(=O)c2ccccc2)CCN1C(=O)C(=O)c1c[nH]c2c(-c3cnc(N)cn3)nccc12 [Example 150, (R)-1-benzoyl-3-methyl-4-[(7-(5-amino-pyrazin-2-yl)-6-azaindol-3-yl)-oxoacetyl]piperazine]",< 1000
12,"CCNc1cnc(-c2ncc(OC)c3c(C(=O)C(=O)N4CCN(C(=O)c5ccccn5)CC4)c[nH]c23)cn1 [Example 179, 1-picolinoyl-4-[(4-methoxy-7-(2-ethylaminopyrazin-5-yl)-6-azaindol-3-yl)-oxoacetyl]piperazine]",< 1000
13,"O=C(C(=O)N1CCN(C(=O)c2ccccc2)CC1)c1c[nH]c2c(-c3ccco3)nccc12 [Example 7, 1-benzoyl-4-[(7-(furan-2-yl)-6-azaindol-3-yl)-oxoacetyl] piperazine]",< 1000
14,"C[C@@H]1CN(C(=O)c2ccccn2)CCN1C(=O)C(=O)c1c[nH]c2c(-c3cc4ccccc4o3)nccc12 [Example 107, (R)-1-picolinoyl-3-methyl-4-[(7-(benzofuran-2-yl)-6-azaindol-3-yl)-oxoacetyl]piperazine]",< 1000
15,"COc1cnc(-c2cnc(-n3cccc3)nc2)c2[nH]cc(C(=O)C(=O)N3CCN(C(=O)c4ccccc4)CC3)c12 [Example 118, 1-benzoyl-4-[(4-methoxy-7-(2-(pyrrol-1-yl)-pyrimidin-5-yl)-6-azaindol-3-yl)-oxoacetyl]piperazine]",< 1000
16,COc1cnc(-c2cnc(N3CCCC3)cn2)c2[nH]cc(C(=O)C(=O)N3CCN(C(=O)c4ccccn4)CC3)c12 [Example 185],< 1000
17,"COc1cnc(-c2cncs2)c2[nH]cc(C(=O)C(=O)N3CCN(C(=O)c4ccccn4)CC3)c12 [Example 151, 1-picolinoyl-4-[(4-methoxy-7-(thiazol-5-yl)-6-azaindol-3-yl)-oxoacetyl]piperazine]",< 1000
18,O=C(Nc1cccnc1)c1ncc(F)c2c(C(=O)C(=O)N3CCN(C(=O)c4ccccc4)CC3)c[nH]c12 [Example 147],< 1000

# Same assay, conditions: Human immunodeficiency virus 1, HeLa-CD4/CCR5, read-out: EC50 Group from Table 1, Table 2-1; HeLa CD4 CCR5 cells, single-round luciferase reporter virus
row,Structure (SMILES),EC50 [nM]
1,"COc1cnc(-n2ccc(NC(C)=O)n2)c2[nH]cc(C(=O)C(=O)N3CCN(C(=O)c4ccccc4)[C@H](C)C3)c12 [Example 262, (R)-1-benzoyl-2-methyl-4-[(4-methoxy-7-(3-acetylamino-pyrazol-1-yl)-6-azaindol-3-yl)-oxoacetyl]piperazine]",< 1000
2,"COc1cnc(-n2ccc(-c3ccc(C)nc3)n2)c2[nH]cc(C(=O)C(=O)N3CCN(C(=O)c4ccccc4)[C@H](C)C3)c12 [Example 263, (R)-1-benzoyl-2-methyl-4-[(4-methoxy-7-(3-(2-methylpyridin-5-yl)pyrazol-1-yl)-6-azaindol-3-yl)-oxoacetyl]piperazine]",< 1000
3,COc1cnc(-c2cnccn2)c2[nH]cc(C(=O)C(=O)N3CCN(C(=O)c4cccnc4)[C@H](C)C3)c12 [Example 270],< 1000
4,"COc1cnc(-n2ccc(C(C)O)n2)c2[nH]cc(C(=O)C(=O)N3CCN(C(=O)c4ccccc4)[C@H](C)C3)c12 (stereo partly drawn) [Example 235, (R)-1-benzoyl-2-methyl-4-[(4-methoxy-7-(3-(1-hydroxylethyl)-pyrazol-1-yl)-6-azaindol-3-yl)-oxoacetyl]piperazine]",< 1000
5,COc1cnc(-c2cnc(N)cn2)c2[nH]cc(C(=O)C(=O)N3CCN(C(=O)c4ccccn4)[C@H](C)C3)c12 [Example 267],< 1000
6,COc1cnc(-c2nc(-c3cccc(Cl)c3)n[nH]2)c2[nH]cc(C(=O)C(=O)N3CCN(C(=O)c4ccccc4)[C@H](C)C3)c12 [Example 339],< 1000

# Same assay, conditions: Human immunodeficiency virus 1, HeLa-CD4/CCR5, read-out: EC50 Group from Table 1, Table 4; HeLa CD4 CCR5 cells, single-round luciferase reporter virus
row,Structure (SMILES),EC50 [nM]
1,"C[C@@H]1CN(C(=O)c2ccccc2)CCN1C(=O)C(=O)c1c[nH]c2c(-c3cnco3)cc(Cl)nc12 [Example 63, 1-benzoyl-3-(R)-methyl-4-[(5-chloro-7-(oxazol-5-yl)-4-azaindol-3-yl)-oxoacetyl]piperazine]",< 1000
2,"Cc1nc(-c2cc(Cl)nc3c(C(=O)C(=O)N4CCN(C(=O)c5ccccc5)C[C@H]4C)c[nH]c23)[nH]c1C [Example 62, 1-benzoyl-3-(R)-methyl-4-[(5-chloro-7-(4,5-dimethyl-imidazol-2-yl)-4-azaindol-3-yl)-oxoacetyl]piperazine]",< 1000
3,"Cc1c[nH]c(-c2cc(Cl)nc3c(C(=O)C(=O)N4CCN(C(=O)c5ccccc5)C[C@H]4C)c[nH]c23)n1 [Example 61, l-benzoyl-3-(R)-methyl-4-[(5-chloro-7-(4-methyl-imidazol-2-yl)-4-azaindol-3-yl)-oxoacetyl]piperazine]",< 1000
4,"C[C@@H]1CN(C(=O)c2ccccc2)CCN1C(=O)C(=O)c1c[nH]c2c(C(=O)Nc3nccs3)ccnc12 [Example 137, (R)-1-benzoyl-3-methyl-4-[(7-(thiazol-2-yl)aminocarbonyl-4-azaindol-3-yl)-oxoacetyl]piperazine]",< 1000
5,C[C@@H]1CN(C(=O)c2ccccc2)CCN1C(=O)C(=O)c1c[nH]c2c(-c3cccs3)ccnc12 [Example 128],< 1000
6,"CCOc1ncc(-c2ccnc3c(C(=O)C(=O)N4CCN(C(=O)c5ccccc5)C[C@H]4C)c[nH]c23)s1 [Example 54, 1-benzoyl-3-(R)-methyl-4-[(7-(2-ethoxy-thiazol-5-yl)-4-azaindol-3-yl)-oxoacetyl]piperazine]",< 1000
7,"Cc1csc(NC(=O)c2ccnc3c(C(=O)C(=O)N4CCN(C(=O)c5ccccc5)C[C@H]4C)c[nH]c23)n1 [Example 136, (R)-1-benzoyl-3-methyl-4-[(7-(4-methylthiazol-2-yl)aminocarbonyl-4-azaindol-3-yl)-oxoacetyl]piperazine]",< 1000
